This experiment deals with T1, human ADRA2B receptor (Homo sapiens, UniProt P18089).
T1 construct: expressed in transfected cells
T1 sequence (P18089 1-450): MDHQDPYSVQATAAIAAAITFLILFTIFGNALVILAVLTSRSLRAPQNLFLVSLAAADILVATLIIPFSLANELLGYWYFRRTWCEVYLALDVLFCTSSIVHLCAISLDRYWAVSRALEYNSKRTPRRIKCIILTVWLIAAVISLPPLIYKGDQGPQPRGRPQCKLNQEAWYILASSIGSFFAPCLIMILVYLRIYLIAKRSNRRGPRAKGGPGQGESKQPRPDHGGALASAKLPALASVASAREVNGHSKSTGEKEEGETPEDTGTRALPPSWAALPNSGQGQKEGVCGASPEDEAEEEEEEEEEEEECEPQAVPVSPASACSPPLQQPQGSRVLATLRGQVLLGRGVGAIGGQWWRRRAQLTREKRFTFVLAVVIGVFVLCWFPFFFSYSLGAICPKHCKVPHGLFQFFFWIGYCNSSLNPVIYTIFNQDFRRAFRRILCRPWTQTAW
Put plainly: ADRA2B arrestin agonist assay. The format is cell-based. As to conditions: CHO-K1 cells stably expressing human ADRA2B; read-out: Beta-Arrestin - Human Alpha2B EC50. In short, it runs like this: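 CHO-K1 cells stably expressing human ADRA2B, thawed from frozen stock and plated overnight, were treated with agonist for 2 h at 37 °C. Arrestin recruitment detected by luminescence after 2 h with detection reagents at room temperature.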
One may read the EC50 as the concentration at which the effect is half-maximal. Regarding `COC(C)(C)c1nccc(CC(c2c[nH]cn2)c2cccc(C)c2C)n1` (stereo not shown) [Compound 209, 4-[2-(4-imidazolyl)-2-(2,3-xylyl)ethyl]-2-(1-methoxy-1-methylethyl)pyrimidine], the half-maximal effective concentration (EC50) was below 10 nM.
In the case of `Cn1nccc1CC(c1c[nH]cn1)c1cccc2c1OCCCO2` (stereo not shown) [Compound 299, 5-[2-(3,4-dihydro-2H-1,5-benzodioxepin-6-yl)-2-(4-imidazolyl)ethyl]-1-], the EC50 was above 500 nM.
The value for `COc1cc(CC(c2c[nH]cn2)c2cccc3c2OCC3)ccn1` (stereo not shown) [Compound 314, 4-[1-(2,3-dihydro-1-benzofuran-7-yl)-2-(2-methoxy-4-pyridyl)ethyl]imidazole] was below 10 nM; that for `Cc1cccc([C@@H](Cc2ccnn2C)c2c[nH]cn2)c1F` [Compound 246, 5-[(R)-2-(2-fluoro-3-tolyl)-2-(4-imidazolyl)ethyl]-1-methylpyrazole] was 50 to 500 nM.
On to `Cc1cccc(C(Cc2cccn3ccnc23)c2c[nH]cn2)c1C` (stereo not shown) [Compound 402, 4-[2-(1,3a-diaza-7-indenyl)-1-(2,3-xylyl)ethyl]imidazole], for which the EC50 was 10 to 50 nM.
Take `COc1c(C)cccc1C(Cc1cccc(C)n1)c1c[nH]cn1` (stereo not shown) [Compound 389, 4-[1-(2-methoxy-3-tolyl)-2-(6-methyl-2-pyridyl)ethyl]imida-zole-formic acid (1/1)]: the EC50 lay within 50 to 500 nM.
The same measure for `Cc1cccc([C@H](Cc2cc[nH]n2)c2c[nH]cn2)c1C` [Compound 235, 3-[(S)-2-(4-imidazolyl)-2-(2,3-xylyl)ethyl]pyrazole]: below 10 nM; for `c1cc2c(c([C@H](Cc3cocn3)c3c[nH]cn3)c1)OCCO2` [Compound 384, 4-[(S)-2-(2,3-dihydro-1,4-benzodioxin-5-yl)-2-(4-imidazolyl)ethyl]-1,3-oxazole]: 10 to 50 nM.
The value for `COc1c(Cl)cccc1C(Cc1ccnc(C)n1)c1c[nH]cn1` (stereo not shown) [Compound 187, 4-[2-(3-chloro-2-methoxyphenyl)-2-(4-imidazolyl)ethyl]-2-methylpyrimidine] was 50 to 500 nM.
The same measure for `Cc1nccc(CC(c2c[nH]cn2)c2cccc3ccn(C)c23)n1` (stereo not shown) [Compound 342, 4-[2-(4-imidazolyl)-2-(1-methyl-7-indolyl)ethyl]-2-methylpyrimidine]: below 10 nM; for `COc1nccc(CC(c2c[nH]cn2)c2cccc(OC)c2F)n1` (stereo not shown) [Compound 181, 4-[2-(2-fluoro-3-methoxyphenyl)-2-(4-imidazolyl)ethyl]-2-methoxypyrimidine]: 10 to 50 nM.
For `COc1nccc(CC(c2ccc(F)c(F)c2)c2c[nH]cn2)n1` (stereo not shown) [Compound 162, 4-[2-(3,4-difluorophenyl)-2-(4-imidazolyl)ethyl]-2-methoxypyrimidine], the EC50 is above 500 nM.
The value for `CCc1cccc(C(Cc2ccn3ccnc3c2)c2c[nH]cn2)c1O` (stereo not shown) [Compound 397, 2-[2-(1,3a-diaza-6-indenyl)-1-(4-imidazolyl)ethyl]-6-ethylphenol] was above 500 nM.
Take `c1cc2c(c([C@@H](Cc3cocn3)c3c[nH]cn3)c1)OCC2` [Compound 371, 4-[(R)-2-(2,3-dihydro-1-benzofuran-7-yl)-2-(4-imidazolyl)ethyl] 1,3-oxazole]: the EC50 lay within 50 to 500 nM.
As for `Cc1cccc(C(Cc2ccns2)c2c[nH]cn2)c1C` (stereo not shown) [Compound 244, 5-[2-(4-imidazolyl)-2-(2,3-xylyl)ethyl]isothiazole], the EC50 is below 10 nM.
Consider `COc1nccc(C[C@@H](c2c[nH]cn2)c2cccc3ccn(C)c23)n1` [Compound 348, 4-[(R)-2-(4-imidazolyl)-2-(1-methyl-7-indolyl)ethyl]-2-methoxypyrimidine], for which the EC50 is below 10 nM.
The value for `COc1c(C)cccc1[C@H](Cc1ccnn1C)c1c[nH]cn1` [Compound 382, 5-[(S)-2-(4-imidazolyl)-2-(2-methoxy-3-tolyl)ethyl]-1-methylpyrazole] was 10 to 50 nM; that for `Cc1cccc(C(Cc2ccsn2)c2c[nH]cn2)c1C` (stereo not shown) [Compound 245, 3-[2-(4-imidazolyl)-2-(2,3-xylyl)ethyl]isothiazole] was below 10 nM.
`COc1nccc(C[C@H](c2c[nH]cn2)c2cccc3ccn(C)c23)n1` [Compound 349, 4-[(S)-2-(4-imidazolyl)-2-(1-methyl-7-indolyl)ethyl]-2-methoxypyrimidine]: the EC50 is above 500 nM.
With `COc1c(C)cccc1C(Cc1cc[nH]n1)c1c[nH]cn1` (stereo not shown) [Compound 242, 3-[2-(4-imidazolyl)-2-(2-methoxy-3-tolyl)ethyl]pyrazole], the EC50 is above 500 nM.
Take `COc1nccc(CC(c2c[nH]cn2)c2ccccc2S(=O)(=O)N2CCCC2)n1` (stereo not shown) [Compound 358, 4-{2-(4-imidazolyl)-2-[o-(1-pyrrolidinylsulfonyl)phenyl]ethyl}-2-methoxypyrimidine]: the EC50 was above 500 nM.
The same measure for `COCc1nccc(CC(c2c[nH]cn2)c2cccc3c2OCC3)n1` (stereo not shown) [Compound 306, 4-[2-(2,3-dihydro-1-benzofuran-7-yl)-2-(4-imidazolyl)ethyl]-2-(methoxymethyl)pyrimidine]: below 10 nM.

These data come from patent publication US20260042769A1, “TRIARYL AGONISTS OF ALPHA-2 ADRENERGIC RECEPTORS” (ALCEPTOR THERAPEUTICS, INC., priority 2023, published 2026).
